Entries after “also recorded” stand apart in the source; their conditions may differ.
Tests used:
[1] = Stability assessment: 1:1 mixture of Form α and anhydrous Form A stirred in tetrahydrofuran, solid tested by XRPD; type: physicochemical; conditions: 25° C. and 50° C.
Experimental: Form α of the present disclosure and anhydrous Form A in CN103648499A were mixed with a mass ratio of 1:1 and stirred in tetrahydrofuran at 5° C., 25° C. and 50° C. at a rate of 500 r/min for 24 h.

[2] = cited from earlier work
[3] = Hygroscopicity assessment by dynamic vapor sorption (DVS); type: physicochemical; conditions: 25° C.; for Weight gain under 80% RH: DVS, 10 mg
Experimental: Dynamic Vapor Sorption (DVS) was measured via Dynamic Vapor Sorption Intrinsic manufacture by SMS's (Surface Measurement Systems Ltd.). Typical Parameters for DVS test were listed below.
Gas and flow rate: N2, 200 mL/min
RH range: 0% RH to 95% RH
Hygroscopicity of 10 mg Form α of the present invention was tested using dynamic vapor sorption (DVS).
About hygroscopicity characterization description and definition of hygroscopicity (Chinese Pharmacopoeia 2010 edition appendix XIXJ Drug hygroscopic test guidelines, test at 25° C.±1, 80% Relative Humidity) • deliquescent: sufficient water is absorbed to form a liquid; • very hygroscopic: increase in mass is equal to or greater than 15 percent; • hygroscopic: increase in mass is less than 15 percent and equal to or greater than 2 percent; • slightly hygroscopic: increase in mass is less than 2 percent and equal to or greater than 0.2 percent; • no or almost no hygroscopic: increase in mass is less than 0.2%.

Compound: C[C@H](Nc1ncnc2[nH]cnc12)c1cc2cccc(Cl)c2c(=O)n1-c1ccccc1 [Form A, (S)-3-(1-(9H-purin-6-ylamino)ethyl)-8-chloro-2-phenylisoquinolin-1(2H)-one]
- Form conversion on stirring ([1]; at 5° C., tetrahydrofuran, 24 h): converted to Form α

Compound: C[C@H](Nc1ncnc2[nH]cnc12)c1cc2cccc(Cl)c2c(=O)n1-c1ccccc1 [Form C, (S)-3-(1-(9H-purin-6-ylamino)ethyl)-8-chloro-2-phenylisoquinolin-1(2H)-one]
- Crystallinity after grinding [2]: decrease or turns into amorphous

Compound: C[C@H](Nc1ncnc2[nH]cnc12)c1cc2cccc(Cl)c2c(=O)n1-c1ccccc1 [Form α, (S)-3-(1-(9H-purin-6-ylamino)ethyl)-8-chloro-2-phenylisoquinolin-1(2H)-one]
- Hygroscopicity according to hygroscopic test guidelines ([3]; Chinese Pharmacopoeia 2010 definition, 80% Relative Humidity): slightly hygroscopic (increase in mass is less than 2 percent and equal to or greater than 0.2 percent)
- Weight gain under 80% RH ([3]; listed as Crystalline Form α of compound of Formula (I)): 0.67%
- Weight gain under 80% RH ([3]; listed as crystalline Form α): 0.67%
- Stability relative to anhydrous Form A in CN103648499A ([1]; conclusion from stirring the mixture at 5° C.): more thermodynamic stable than Form A in CN103648499A; also recorded: more stable than anhydrous Form A in CN103648499A
